The values below are quoted from earlier work in US20240424001A1, “LOCAL […] OF GROWTH AND REPAIR PROMOTING COMPOUNDS FOR TREATING, REDUCING AND/OR PREVENTING STRESS URINARY IN[…] FECAL INCONTINENCE” (STATERA PHARMA INC., priority 2021, published 2024).

For this data set the following is noted: approximate; testosterone = 100%; varies with species studied and assay methodology (ref. 14).

Regarding `C[C@]12CC[C@H]3[C@@H](CCC4=CC(=O)CC[C@@]43C)[C@@H]1CC[C@@H]2O` [testosterone], the “relative potency of androgens” value is given as approximately 100%.

Regarding `C[C@]12CCC(=O)C=C1CC[C@@H]1[C@@H]2CC[C@]2(C)C(=O)CC[C@@H]12` [androstenedione], the “relative potency of androgens” value was approximately 10%.

In the case of `C[C@]12CC[C@H](O)CC1=CC[C@@H]1[C@@H]2CC[C@]2(C)C(=O)CC[C@@H]12` [dehydroepiandrosterone], the “relative potency of androgens” value is reported as approximately 5%.
